Here are results for one substance from patent US11246907B2, “Immunosuppressive agents and their use in therapy” (Norwegian University of Science and Technology, priority 2013, dated 2022).

Assay [1] relates to peripheral blood monocytes. Kind of assay: Multiplex (27-plex) cytokine secretion of TLR-ligand stimulated peripheral blood monocytes. The assay is classed as cell-based, human. The settings on record: 4 h. On the procedure: Measured cytokine levels were normalized to cytokine levels from monocytes stimulated with TLR ligand alone. A two fold or higher increase in cytokine level after TLR stimulation was defined as cytokine induction. […] Isolated monocytes were stimulated with 10 ng/ml LPS and 40 μg/ml polyIC alone and in combination with 4 μM ATX-101 for 4 h. […] DRAQS was used for nuclear staining. Bar, 5 μm.
Data is from one representative donor out of three; and (B-E) show multiplex analysis of cytokine levels produced by peripheral blood monocytes stimulated with 10 ng/ml LPS (B and D, same donor) and 40 μg/ml polyIC (C and E, same donor) after 4 h. (B and C) Stimulated-monocytes were treated with 4 μM ATX-101, 10 μM SB203580 (p38 MAPK inhibitor), and combination of ATX-101 and SB203580. (D and E) Stimulated-monocytes were treated with 4 μM ATX-101, 5 and 10 μM LY294002 (PI3K class I inhibitor), and combination of ATX-101 and LY294002. Measured cytokine levels were normalized to cytokine levels from monocytes stimulated with TLR ligand alone. A two fold or higher increase in cytokine level after TLR stimulation was defined as cytokine induction. # Value is too low to be visible in the column diagram; ? cytokine measurement was out of range. Data is from representative experiments out of two.
Measured cytokine levels were normalized to cytokine levels from monocytes stimulated with TLR ligand alone. A two fold or higher increase in cytokine level after TLR stimulation was defined as cytokine induction. ? Cytokine measurement was out of range. Data is from one experiment out of two.
Measured cytokine levels were normalized to cytokine levels from monocytes stimulated with TLR ligand alone. Data is from one donor. We obtained similar results for IL-6 secretion in two other donors.
Measured cytokine levels were normalized to cytokine levels from monocytes stimulated with TLR ligand alone. A two fold or higher increase in cytokine level after TLR stimulation was defined as cytokine induction. # Value is too low to be visible in the column diagram; 0 Cytokine measurement was out of range. Data is from one experiment out of two.
Peripheral blood mononuclear cells were isolated from A+ buffy coats (Blood Bank, St. Olav's University Hospital, Trondheim, Norway) by density gradient centrifugation (Lymphoprep; Axis-Shield PoC, Oslo, Norway). Mononucleated cells were seeded at 4 million cells/ml in serum-free RPMI 1640 supplemented with glutamine and gentamicin. After 60-90 min the adherent cell population was washed before cultured in medium with 10% heat-inactivated human serum (Blood Bank, St. Olav's University Hospital). ATX-101 (4 μM [Innovagen, Lund, Sweden]), ATX-A (4 μM, [Innovagen]) (ATX-A is represented in SEQ ID NO: 1206 and contains the motif RALVK (SEQ ID NO: 1207), which is not capable of interacting with PCNA), p38 inhibitor (SB203580, 10 μM, [Sigma-Aldrich]), PI3K inhibitor (LY294002, 5 and 10 μM, [Sigma-Aldrich]), and Akt inhibitor (Akt inhibitor XVIII SC66, 1 μg/ml, [Sigma-Aldrich]) were added in serum-free medium and incubated for 5 min before LPS (10 ng/ml, [Sigma-Aldrich]), polylC (40 μg/ml, [GE Healthcare, Little Chalfont, UK]), PAM3Cys (10 ng/ml, [Invivogen, San Diego, Calif., USA]) or R848 (10 μg/ml, [Invivogen]) were added in serum-containing medium. The cells were incubated for 4 h before the supernatants were harvested and frozen prior to further cytokine analysis by the 27-plex assay (Bio-Plex ProTM Human cytokine 27-plex assay).

The next assay concerns PACT. Kind of assay: Western blot of PACT protein levels in HaCaT cells. The assay is classed as cell-based, human. The following applies: 12 μM ATX-101 + 2 μg/ml polyIC, 4 h. As to the method: (§1) Protein levels were corrected for loading differences (β-tubulin) and normalized to untreated control cells. […] Bar, 5 μm.
(§2) The multiple myeloma cell lines JJN-3 (gift from J. Ball, University of Birmingham, United Kingdom) were grown in RPMI 1640 (Sigma-Aldrich, Schnelldorf, Germany) supplemented with 10% FCS, 2 mM glutamine (Sigma-Aldrich), 2.5 μg/ml amphotericin B (Sigma-Aldrich) and 100 μg/ml gentamicin (Invitrogen, Carlsbad, Calif., USA). HaCaT cells (spontaneously transformed keratinocytes) were cultured in DMEM (Sigma-Aldrich) containing FCS, glutamine, amphotericin B, and gentamicin. All cells were cultured at 37° C. in a humidified atmosphere of 5% CO2.
(§3) Mononucleated cells were seeded and stimulated as described above. JJN-3 cells were treated with ATX-101 (6 μM) for 4 h. HaCaT cells were treated with ATX-101 (12 μM), polylC (2 μg/ml), and LPS (100 ng/ml) for 4 h. […] The proteins were visualized with the Odyssey infrared imaging system (LI-COR) and quantified using Odyssey Image Studio V2. […]

Assay [2] has as its system p70 S6 kinase Thr389 phosphorylation. Kind of assay: Western blot of p70 S6 kinase Thr389 phosphorylation in JJN-3 cells. The assay is classed as cell-based. The following applies: 6 μM ATX-101, 4, 8, 24 h.
The test system of assay [3] is Akt Ser473 phosphorylation. Description: Western blot of Akt Ser473 phosphorylation in HaCaT cells. The following applies: 12 μM, 4 h; unstimulated and 2 μg/ml polyIC. It is filed as cell-based, human. As to the method:
as §1, §2, §3

Ends that are not written are not given here.

Ac-MDRWLVKWKKKRKIRRRRRRRRRRR [ATX-101]: the “cytokine secretion, combination of ATX-101 and p38 MAPK inhibitor” value in assay [1] (LPS or polyIC, 4 μM ATX-101 + 10 μM SB203580) is “increased reduction of most cytokines”. Further, the “cytokine secretion, combination of ATX-101 and PI3K inhibitor LY294002” value in assay [1] (LPS or polyIC, 4 μM ATX-101 + 5 and 10 μM LY294002) was “reduction in the secretion of some cytokines”. In addition, the “cytokine secretion from stimulated monocytes, single agent” value in assay [1] (LPS or polyIC, ATX-101 4 μM, SB203580 10 μM, LY294002 5 and 10 μM, SC66 1 μg/ml) was “reduced cytokine secretion”. The “basal level production of CXCL10” value in assay [1] (isolated monocytes, 4 μM) is reported as “decreased”. In addition, the “basal level of IL-12” value in assay [1] (monocytes, 4 μM) is listed as “reduced the basal level of IL-12”. In addition, the “secretion of LPS-induced cytokines” value in assay [1] (monocytes, 4 μM, 10 ng/ml LPS) is listed as “efficiently reduced”. Also, the “secretion of CXCL10, CCL2, CCL3 and CCL4 after TLR3 stimulation with polyIC” value in assay [1] (monocytes, 4 μM, 40 μg/ml polyIC) is “reduced the secretion of CXCL10, CCL2, CCL3, and CCL4”. For the same substance, the “PACT protein level, polyIC-stimulated HaCaT cells” value with PACT is recorded as “further reduced the protein level of PACT”. For the same substance, the “phosphorylation of p70 S6 kinase” value in assay [2] is “decreased”. The “Akt phosphorylation in HaCaT cells” value in assay [3] is “reduced Akt phosphorylation in unstimulated and stimulated cells”.
